Tested on: HCT116 cells
Test: In vitro cytotoxicity measured by the cell colony formation assay
Format: cell-based
Details: HCT116 cells, 72 h drug incubation, colonies counted after 7 days; ID50 = drug concentration producing 50% inhibition of colony formation; read-out: IN VITRO ID 50 (nm) HCT116
Procedure, shortened: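 Colony-forming survival was scored 7 days after a 72 h, 37 °C compound exposure followed by washout into fresh medium.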

`CC(=O)O[C@@]12CO[C@@H]1C[C@H](OC(=O)NC(C)(C)C)[C@@]1(C)C(=O)[C@H](O)C3=C(C)[C@@H](OC(=O)[C@H](O)[C@@H](NC(=O)OC(C)(C)C)c4ccco4)C[C@@](O)([C@@H](OC(=O)c4ccccc4)C12)C3(C)C` (stereo partly shown) [Compound 5454] was tested, and the IC50 was under 10 nM.

Same assay, conditions: HCT116 cells, 72 h incubation with drug, colonies counted after 7 days; ID50 = drug concentration producing 50% inhibition of colony formation; read-out: IN VITRO ID 50 (nm) HCT116

`CCOC(=O)O[C@H]1C[C@H]2OC[C@@]2(OC(C)=O)C2[C@H](OC(=O)c3ccccc3)[C@]3(O)C[C@H](OC(=O)[C@H](O)[C@@H](NC(=O)OCC(C)C)c4ccoc4)C(C)=C([C@@H](O)C(=O)[C@@]21C)C3(C)C` (stereo partly shown) [Compound 4624] and `CCOC(=O)O[C@H]1C[C@H]2OC[C@@]2(OC(C)=O)C2[C@H](OC(=O)c3ccccc3)[C@]3(O)C[C@H](OC(=O)[C@H](O)[C@@H](NC(=O)OCC(C)C)c4ccco4)C(C)=C([C@@H](O)C(=O)[C@@]21C)C3(C)C` (stereo partly shown) [Compound 4696] cannot be ordered by IC50: under 10 nM for the first, under 1 nM for the second.

`CCOC(=O)O[C@H]1C[C@H]2OC[C@@]2(OC(C)=O)C2[C@H](OC(=O)c3ccccc3)[C@]3(O)C[C@H](OC(=O)[C@H](O)[C@@H](NC(=O)OCC(C)C)C4CC4)C(C)=C([C@@H](O)C(=O)[C@@]21C)C3(C)C` (stereo partly shown) [Compound 5225] and `COC(=O)O[C@H]1C[C@H]2OC[C@@]2(OC(C)=O)C2[C@H](OC(=O)c3ccccc3)[C@]3(O)C[C@H](OC(=O)[C@H](O)[C@H](C=C(C)C)NC(=O)OCC(C)C)C(C)=C([C@@H](O)C(=O)[C@@]21C)C3(C)C` (stereo partly shown) [Compound 4644] cannot be ordered by IC50: under 10 nM for the first, under 10 nM for the second.

`CCOC(=O)O[C@H]1C(=O)[C@@]2(C)C([C@H](OC(=O)c3ccccc3)[C@]3(O)C[C@H](OC(=O)[C@H](O)[C@@H](NC(=O)OC(C)(C)C)c4cccnc4)C(C)=C1C3(C)C)[C@]1(OC(C)=O)CO[C@@H]1C[C@@H]2O` (stereo partly shown) [Compound 1808] and `COC(=O)O[C@H]1C(=O)[C@@]2(C)C([C@H](OC(=O)c3ccccc3)[C@]3(O)C[C@H](OC(=O)[C@H](O)[C@@H](NC(=O)OC(C)(C)C)c4ccc([N+](=O)[O-])cc4)C(C)=C1C3(C)C)[C@]1(OC(C)=O)CO[C@@H]1C[C@@H]2O` (stereo partly shown) [Compound 2088] cannot be ordered by IC50: under 10 nM for the first, under 1 nM for the second.

`C/C=C/C(=O)N[C@@H](c1cccs1)[C@@H](O)C(=O)O[C@H]1C[C@@]2(O)[C@@H](OC(=O)c3ccccc3)C3[C@](C)(C(=O)[C@H](O)C(=C1C)C2(C)C)[C@@H](OC(=O)OC)C[C@H]1OC[C@@]31OC(C)=O` (stereo partly shown) [Compound 4766] and `CC=CC(=O)NC(c1ccco1)C(O)C(=O)OC1CC2(O)C(OC(=O)c3ccccc3)C3C4(OC(C)=O)COC4CC(O)C3(C)C(=O)C(OC(=O)OCC)C(=C1C)C2(C)C` (stereo not shown) [Compound 4000] cannot be ordered by IC50: under 1 nM for the first, under 1 nM for the second.

`CCOC(=O)O[C@H]1C(=O)[C@@]2(C)C([C@H](OC(=O)c3ccccc3)[C@]3(O)C[C@H](OC(=O)[C@H](O)[C@@H](NC(=O)OCC(C)C)c4ccsc4)C(C)=C1C3(C)C)[C@]1(OC(C)=O)CO[C@@H]1C[C@@H]2O` (stereo partly shown) [Compound 4924] and `CCOC(=O)O[C@H]1C(=O)[C@@]2(C)C([C@H](OC(=O)c3ccccc3)[C@]3(O)C[C@H](OC(=O)[C@H](O)[C@@H](NC(=O)c4ccco4)c4cccs4)C(C)=C1C3(C)C)[C@]1(OC(C)=O)CO[C@@H]1C[C@@H]2O` (stereo partly shown) [Compound 3011] cannot be ordered by IC50: under 10 nM for the first, under 1 nM for the second.

`COC(=O)O[C@H]1C[C@H]2OC[C@@]2(OC(C)=O)C2[C@H](OC(=O)c3ccccc3)[C@]3(O)C[C@H](OC(=O)[C@H](O)[C@H](C=C(C)C)NC(=O)OC(C)(C)C)C(C)=C([C@@H](O)C(=O)[C@@]21C)C3(C)C` (stereo partly shown) [Compound 4484] showed an IC50 of under 1 nM.

Same assay, conditions: HCT116 colony formation; 72 h drug incubation, colonies counted after 7 days; Example 5, C-7 ester/C-10 hydroxy taxanes; read-out: IN VITRO ID 50 (nm) HCT116

`CCC(=O)O[C@H]1C[C@H]2OC[C@@]2(OC(C)=O)C2[C@H](OC(=O)c3ccccc3)[C@]3(O)C[C@H](OC(=O)[C@H](O)[C@@H](NC(=O)OC(C)C)c4ccco4)C(C)=C([C@@H](O)C(=O)[C@@]21C)C3(C)C` (stereo partly shown) [Compound 3444] and `CCOC(=O)N[C@@H](c1cccs1)[C@@H](O)C(=O)O[C@H]1C[C@@]2(O)[C@@H](OC(=O)c3ccccc3)C3[C@](C)(C(=O)[C@H](O)C(=C1C)C2(C)C)[C@@H](OC(=O)CC)C[C@H]1OC[C@@]31OC(C)=O` (stereo partly shown) [Compound 4044] cannot be ordered by IC50: under 1 nM for the first, under 1 nM for the second.

`CCC(=O)O[C@H]1C[C@H]2OC[C@@]2(OC(C)=O)C2[C@H](OC(=O)c3ccccc3)[C@]3(O)C[C@H](OC(=O)[C@H](O)[C@@H](NC(=O)c4cccs4)c4cccs4)C(C)=C([C@@H](O)C(=O)[C@@]21C)C3(C)C` (stereo partly shown) [Compound 3479] and `CCC(=O)O[C@H]1C[C@H]2OC[C@@]2(OC(C)=O)C2[C@H](OC(=O)c3ccccc3)[C@]3(O)C[C@H](OC(=O)[C@H](O)[C@@H](NC(=O)OC(C)(C)C)c4ccncc4)C(C)=C([C@@H](O)C(=O)[C@@]21C)C3(C)C` (stereo partly shown) [Compound 1386] cannot be ordered by IC50: under 1 nM for the first, under 1 nM for the second.

Compound `CCC(=O)O[C@H]1C[C@H]2OC[C@@]2(OC(C)=O)C2[C@H](OC(=O)c3ccccc3)[C@]3(O)C[C@H](OC(=O)[C@H](O)[C@@H](NC(=O)OC(C)(C)C)c4nccs4)C(C)=C([C@@H](O)C(=O)[C@@]21C)C3(C)C` (stereo partly shown) [Compound 6363] has an IC50 of under 10 nM.

Same assay, conditions: HCT116 colony formation; 72 h drug incubation, colonies counted after 7 days; Example 10, C-10 ester/C-7 hydroxy taxanes; read-out: IN VITRO ID 50 (nm) HCT116

`CCC(=O)O[C@H]1C(=O)[C@@]2(C)C([C@H](OC(=O)c3ccccc3)[C@]3(O)C[C@H](OC(=O)[C@H](O)[C@@H](NC(=O)OCC(C)C)c4cccs4)C(C)=C1C3(C)C)[C@]1(OC(C)=O)CO[C@@H]1C[C@@H]2O` (stereo partly shown) [Compound 3163] and `CCCC(=O)O[C@H]1C(=O)[C@@]2(C)C([C@H](OC(=O)c3ccccc3)[C@]3(O)C[C@H](OC(=O)[C@H](O)[C@@H](NC(=O)OCC(C)C)c4cccs4)C(C)=C1C3(C)C)[C@]1(OC(C)=O)CO[C@@H]1C[C@@H]2O` (stereo partly shown) [Compound 3265] cannot be ordered by IC50: under 1 nM for the first, under 10 nM for the second.

`CCCC(=O)O[C@H]1C(=O)[C@@]2(C)C([C@H](OC(=O)c3ccccc3)[C@]3(O)C[C@H](OC(=O)[C@H](O)[C@@H](NC(=O)c4ccccc4)c4cccs4)C(C)=C1C3(C)C)[C@]1(OC(C)=O)CO[C@@H]1C[C@@H]2O` (stereo partly shown) [Compound 3258] and `CCC(=O)O[C@H]1C(=O)[C@@]2(C)C([C@H](OC(=O)c3ccccc3)[C@]3(O)C[C@H](OC(=O)[C@H](O)[C@@H](NC(=O)c4ccccc4)c4ccoc4)C(C)=C1C3(C)C)[C@]1(OC(C)=O)CO[C@@H]1C[C@@H]2O` (stereo partly shown) [Compound 0670] cannot be ordered by IC50: under 1 nM for the first, under 1 nM for the second.

`CCC(=O)O[C@H]1C(=O)[C@@]2(C)C([C@H](OC(=O)c3ccccc3)[C@]3(O)C[C@H](OC(=O)[C@H](O)[C@@H](NC(=O)c4ccccc4)c4ccc([N+](=O)[O-])cc4)C(C)=C1C3(C)C)[C@]1(OC(C)=O)CO[C@@H]1C[C@@H]2O` (stereo partly shown) [Compound 0732] and `CCC(=O)O[C@H]1C(=O)[C@@]2(C)C([C@H](OC(=O)c3ccccc3)[C@]3(O)C[C@H](OC(=O)[C@H](O)[C@@H](NC(=O)c4ccccc4)C4CC4)C(C)=C1C3(C)C)[C@]1(OC(C)=O)CO[C@@H]1C[C@@H]2O` (stereo partly shown) [Compound 0706] cannot be ordered by IC50: under 10 nM for the first, under 1 nM for the second.

`CC(=O)O[C@@]12CO[C@@H]1C[C@H](O)[C@@]1(C)C(=O)[C@H](OC(=O)C=C(C)C)C3=C(C)[C@@H](OC(=O)[C@H](O)[C@@H](NC(=O)OC(C)(C)C)c4ccco4)C[C@@](O)([C@@H](OC(=O)c4ccccc4)C12)C3(C)C` (stereo partly shown) [Compound 2488] and `CCC(=O)O[C@H]1C(=O)[C@@]2(C)C([C@H](OC(=O)c3ccccc3)[C@]3(O)C[C@H](OC(=O)[C@H](O)[C@@H](NC(=O)OC(C)(C)C)c4ccoc4)C(C)=C1C3(C)C)[C@]1(OC(C)=O)CO[C@@H]1C[C@@H]2O` (stereo partly shown) [Compound 5495] cannot be ordered by IC50: under 1 nM for the first, under 1 nM for the second.

`CC(=O)O[C@@]12CO[C@@H]1C[C@H](O)[C@@]1(C)C(=O)[C@H](OC(=O)C3CC3)C3=C(C)[C@@H](OC(=O)[C@H](O)[C@@H](NC(=O)c4ccco4)c4ccco4)C[C@@](O)([C@@H](OC(=O)c4ccccc4)C12)C3(C)C` (stereo partly shown) [Compound 3866] and `CC(=O)O[C@@]12CO[C@@H]1C[C@H](O)[C@@]1(C)C(=O)[C@H](OC(=O)C3CC3)C3=C(C)[C@@H](OC(=O)[C@H](O)[C@@H](NC(=O)c4ccccc4)c4ccccc4)C[C@@](O)([C@@H](OC(=O)c4ccccc4)C12)C3(C)C` (stereo partly shown) [Compound 0937] cannot be ordered by IC50: under 1 nM for the first, under 10 nM for the second.

`CCCC(=O)O[C@H]1C(=O)[C@@]2(C)C([C@H](OC(=O)c3ccccc3)[C@]3(O)C[C@H](OC(=O)[C@H](O)[C@@H](NC(=O)OC(C)(C)C)c4ccncc4)C(C)=C1C3(C)C)[C@]1(OC(C)=O)CO[C@@H]1C[C@@H]2O` (stereo partly shown) [Compound 0978] and `CCC(=O)O[C@H]1C(=O)[C@@]2(C)C([C@H](OC(=O)c3ccccc3)[C@]3(O)C[C@H](OC(=O)[C@H](O)[C@@H](NC(=O)OC(C)(C)C)c4ccsc4)C(C)=C1C3(C)C)[C@]1(OC(C)=O)CO[C@@H]1C[C@@H]2O` (stereo partly shown) [Compound 0562] cannot be ordered by IC50: under 1 nM for the first, under 1 nM for the second.

`CC(=O)OC12COC1CC(O)C1(C)C(=O)C(OC(=O)c3ccco3)C3=C(C)C(OC(=O)C(O)C(NC(=O)OC(C)(C)C)c4cccnc4)CC(O)(C(OC(=O)c4ccccc4)C21)C3(C)C` (stereo not shown) [Compound 2124] and `CC(=O)OC12COC1CC(O)C1(C)C(=O)C(OC(=O)c3ccco3)C3=C(C)C(OC(=O)C(O)C(NC(=O)OC(C)(C)C)c4ccccc4)CC(O)(C(OC(=O)c4ccccc4)C21)C3(C)C` (stereo not shown) [Compound 2212] cannot be ordered by IC50: under 10 nM for the first, under 10 nM for the second.

`CC(=O)OC12COC1CC(O)C1(C)C(=O)C(OC(=O)c3ccco3)C3=C(C)C(OC(=O)C(O)C(NC(=O)OC(C)(C)C)c4ccc([N+](=O)[O-])cc4)CC(O)(C(OC(=O)c4ccccc4)C21)C3(C)C` (stereo not shown) [Compound 2202] and `CC(=O)OC12COC1CC(O)C1(C)C(=O)C(OC(=O)c3ccco3)C3=C(C)C(OC(=O)C(O)C(NC(=O)OC(C)(C)C)C4CCC4)CC(O)(C(OC(=O)c4ccccc4)C21)C3(C)C` (stereo not shown) [Compound 2199] cannot be ordered by IC50: under 1 nM for the first, under 10 nM for the second.

Same assay, conditions: HCT116 colony formation; 72 h drug incubation, colonies counted after 7 days; Example 15, C-7 substituted acetate/C-10 hydroxy taxanes; read-out: IN VITRO ID 50 (nm) HCT116

Compound `CC(=O)OCC(=O)O[C@H]1C[C@H]2OC[C@@]2(OC(C)=O)C2[C@H](OC(=O)c3ccccc3)[C@]3(O)C[C@H](OC(=O)[C@H](O)[C@@H](NC(=O)OC(C)(C)C)c4ccco4)C(C)=C([C@@H](O)C(=O)[C@@]21C)C3(C)C` (stereo partly shown) [Compound 5622] has an IC50 of under 1 nM.
